From US20100130514A1, “FUSED HETEROCYCLIC DERIVATIVE, PHARMACEUTICAL COMPOSITION COMPRISING THE DERIVATIVE, AND USE OF THE COMPOSITION FOR MEDICAL PURPOSES” (Kissei Pharmaceutical Co., Ltd., priority 2007, published 2010)

Columns and labels:
[1] = Assay for oral absorbability: plasma drug concentration after oral administration; type: in vivo; settings: overnight fasted male SD rats, 3 mg/kg
Description: Assay for Oral Absorbability
1) Preparation of the Samples for Measurement of the Drug Concentration After Oral Administration
As experimental animal, overnight fasted SD rats (Charles River, male, 7 weeks of age, 170-210 g) were used. Three mg of a test compound was dissolved by adding 0.2 mL of N,N-dimethylacetoamide, 9.794 mL of 0.5% aqueous methylcellulose solution and 0.006 mL of 2N NaOH, and then 0.3 mg/mL solution was prepared. The body weights of rats were measured, and the solution of the test compound was administered orally at the dose of 10 mL/kg (3 mg/kg). The oral administration was performed with gastric tube for rat and 2.5 mL syringe. The sampling times for collection of blood were 15, 30, 60, 120, 240 and 360 minutes after the oral administration. The blood was centrifuged, and the plasma was used as the sample for measurement of the drug concentration in blood.
2) Measurement of the Drug Concentration
To 0.025 mL of the plasma obtained in 1) described above, 0.1 mL of an adequate internal standard material was added according to the usual method, and then deproteinization was performed by adding 0.875 mL of acetonitrile. After centrifugation, 0.005 mL of the supernatant was injected into LC-MS/MS. The drug concentration in plasma was measured by LC-MS/MS method under the conditions as follows. […]

human GnRHR1 = target: T1, human GnRHR1 (Homo sapiens, UniProt P30968); experiment: Inhibitory effect for the change of calcium levels in GnRH-stimulated cells (hGnRHR1#1 HEK293 cells); type: cell-based; settings: HEK293 cells stably expressing human GnRHR1; 10 nM GnRH added; FLIPR Calcium Assay Kit; read-out: IC50 (drug concentration at which 50% GnRH-stimulated intracellular calcium flux was inhibited)
T1 construct: expressed in transfected cells
T1 sequence (P30968 1-328): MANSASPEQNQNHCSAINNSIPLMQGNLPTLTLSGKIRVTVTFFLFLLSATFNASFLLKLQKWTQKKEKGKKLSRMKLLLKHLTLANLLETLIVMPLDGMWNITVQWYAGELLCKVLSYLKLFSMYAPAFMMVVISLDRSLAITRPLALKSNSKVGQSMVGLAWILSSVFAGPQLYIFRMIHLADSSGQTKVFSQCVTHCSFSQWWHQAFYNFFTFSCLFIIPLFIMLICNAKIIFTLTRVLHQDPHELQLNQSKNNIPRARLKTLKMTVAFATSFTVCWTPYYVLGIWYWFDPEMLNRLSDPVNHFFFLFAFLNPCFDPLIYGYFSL
Description: 1) Cloning and Construction of the Vector Expressing Human GnRH Receptor1 (GnRHR1)
Using cDNA derived from human pituitary (BECTON DICKINSON) as a template, the DNA fragment coding 45 to 1115 by of human GnRHR1 (Accession No. L03380), which was reported by Kakar et al., was amplified by PCR method and inserted into the multi-cloning site of pcDNA3.1(+) (Invitrogen). The DNA sequence inserted was perfectly matched to the previously reported sequence.
2) Establishment of Cell Line Stably Expressing Human GnRH Receptor1 HEK293 Cells
The expression vector of human GnRHR1 gene, was digested by XhoI into a linear DNA. The linear DNA was transfected into HEK293 cells by means of lipofection (Lipofectamine2000: Invitrogen). Neomycin resistant cell lines were selected by culture in the medium containing G418 (Invitrogen) at 1 mg/mL, and then the change of calcium levels in GnRH-stimulated cells was measured by the method described below.
3) Assay of Inhibitory Effect for the Change of Calcium Levels in GnRH-Stimulated Cells
Antagonizing effect of compounds for human GnRHR1 was evaluated by depression of calcium levels in GnRH-stimulated cells. hGnRHR1#1 cells were seeded into a 96-well culture plate at a density of 1.5×10^5 cells/well and cultured for a day. […] Then, intracellular calcium levels were determined under the following condition by using FLEX STATION (Molecular Devices). […]

Compound `COC(=O)N(C)CCOc1ccc(F)c(F)c1COc1ccc(F)c(-n2c(=O)[nH]c3csc(C(=O)O)c3c2=O)c1` [Example 8] has a C360 (plasma drug concentration at 360 minutes after administration) ([1]; 360 minutes) of 490 ng/mL, a Cmax ([1]; rat, read-out: Cmax (maximum plasma drug concentration)) of 2380 ng/mL and an IC50 (human GnRHR1) of 91 nM.
